Reference: US4902716A (priority 1984, dated 1990)
Read-outs that look alike come from different tables or passages of the source.

Legend:
cells = experiment: Cytotoxicity (zone diameter in the antiviral assay); type: cell-based; settings: Day 5
Procedure: The following assay method was utilized to illustrate the antiviral effectiveness of the compounds of formulae III and IV: […]
(1) Remove 75 cm^2 culture flasks from incubator (these were plated the previous week).
(3) Wash with 10 ml. PBSA or Puck's Saline.
(5) Wash a second time with 10 mL PBSA or Puck's Saline.
(7) Add 2 ml. trypsin/EDTA. Incubate until cells detach (10-20 min).
(8) Once detached, shake vigorously and immediately add 8 ml. medium and shake again.
(9) Count cells. (To 0.5 ml. cell suspension add 0.1 ml. trypan blue. Wait 5-10 minutes. Count 4 corner squares and middle square of 5×5 array in hemocytometer. Blue cells are dead. Total count per 10 ml. in culture flask=number of live cells×6×10^5).
(10) Maintain cell line by adding 3×10^6 cells to another 75 cm^2 culture flask. Bring to 30 ml. with fresh medium.
(11) For assay, add 1×10^6 cells to each well (6 wells per culture dish). Bring each well to 2 ml. with fresh medium.
(12) Incubate overnight at 37° C.
(2) Add 0.5 of medium containing 200 pfu HSV-I.
(3) Incubate 102 hr with a small amount of shaking.
(4) Add 2 ml. MC-4000 to each well.
(5) Place disks on surface and wash through (1 mg/disc, 0.5 mg/disc, 0.25 mg/disc, etc. for crude extracts).
(6) Incubate 48 hr. (making sure dishes remain level).
(1) Add 2 ml. neutral red medium.
(1) Read wells, e.g. 26 (++) where 26 indicates zone of cytotoxicity as the diameter in mm (12.5 mm to 36 mm) and (++) indicates the inhibition of plaque formation: complete inhibition (+++); a few plaques around the outside of well (++); definite inhibition (+); questionable inhibition (+/-); no inhibition (-); and no conclusion due to complete cytotoxicity.
The following antiviral inhibiting activity results were obtained utilizing the compounds of Formula III and IV at Day 5: […]

VSV = type: cell-based, vesicular stomatitis; settings: Day 5, inhibition of plaque formation

SMILES: C=C1C(=O)C=CC(C)(C)[C@@]12C[C@@H](Br)[C@](C)(Cl)C[C@@H]2O [IV]
- Cytotoxicity (cells; 100 micrograms): 0 mm
- Cytotoxicity (cells; 200 micrograms): 0 mm
- Cytotoxicity (cells; 400 micrograms): 12 mm
- VSV activity (VSV; 100 micrograms): +
- VSV activity (VSV; 200 micrograms): ++
- VSV activity (VSV; 400 micrograms): ++
